Laboratory results published in patent publication US11926584B2, “Methods of making bempedoic acid and compositions of the same” (Esperion Therapeutics, Inc., priority 2019, dated 2024).

How the values were obtained:
[1] = Thermogravimetric analysis (TGA) of the crystalline form; format: physicochemical; conditions: heated at 10° C./minute from ambient (~25° C.) to about 315° C., open platinum pans
Experimental: Thermogravimetric analysis (TGA) data for the crystalline form of the compound of formula (V) were collected using a TA Discovery 550 TGA instrument. The TGA instrument was calibrated using a nickel reference standard. Samples of the crystalline form of the compound of formula (V) were placed in open platinum sample pans and heated at a rate of 10° C./minute from about ambient temperature (˜25° C.) to about 315° C.

[2] = Dynamic vapor sorption (water sorption) of the crystalline form; format: physicochemical; conditions: relative humidity of 80%, temperature of 25° C., isotherm in FIG. 6
Experimental: The crystalline form of the compound of formula (V) may also be characterized according to its water sorption properties. […] In certain embodiments, the crystalline form of the compound of formula (V) has a water sorption isotherm, when measured at 25° C., substantially the same as shown in FIG. 6.

**Q.** With CC(C)(CCCCCC(O)CCCCCC(C)(C)C(=O)O)C(=O)O [compound of formula (V), 8-hydroxy-2,2,14,14-tetramethylpentadecanedioic acid] as the compound, how does the “weight loss in TGA curve” value [1] read?
**A.** negligible weight loss prior to decomposition

**Q.** What about the “change in mass, as determined by dynamic vapor sorption” value [2] of the same compound?
**A.** about 0.03%
